Assays:
[1] = Two-phase transatlantic travel study (jet lag, five or eight time zones); format: in vivo, human; details: for Objective TST2/3 Night 3, change from baseline: 20 mg for three consecutive nights prior to bedtime; for Objective TST2/3 Night 3, change from baseline / Objective TST2/3 All 3 nights, change from baseline: treated travel vs baseline observational travel
Description: A two-phase transatlantic travel study of 25 subjects (tasimelteon n=13, placebo n=12) comprises a first phase that is an observational travel study to collect baseline data, and a second phase that is a treatment phase. Participants in the study travel either five or eight time zones from Washington, DC to London (five time zones) or San Francisco or Los Angeles to London (eight time zones). Participants stay at their destination for three nights and four days and during randomization receive 20 mg of tasimelteon for three consecutive nights prior to their bedtime. Efficacy is monitored by PSG as well as sleep and wake questionnaire scales.
The primary endpoint of the study is TST for the first 2/3 of the night(s) most likely to be disrupted. These are, from Table 2, Night 3, followed by Night 1 and Night 2.
Measures of global function, including Patient Global Impression of Severity (PGI-S) and KSS also favor tasimeltcon.

[2] = Phase III clinical study of an 8-hour advance in usual bedtime (jet lag disorder circadian challenge); format: in vivo, human
Description: In the course of the trial, volunteers are subjected to a circadian challenge of an 8-hour advance in their usual bedtime, consistent with the circadian challenge induced in travelers crossing eight time zones (e.g., Los Angeles to London or Washington, DC to Moscow) and typically causing jet lag disorder.
The pre-specified primary endpoint used for this purpose is the amount of sleep time in the first two thirds of the night. Secondary endpoints include measures of various sleep parameters-total sleep time (TST), latency to persistent sleep (LPS), and wake after sleep onset (WASO)-as well as next day alertness, measured using the Karolinska Sleepiness Scale (KSS) and Visual Analog Scale (VAS).

[3] = 20 mg for three consecutive nights, Post-Sleep Questionnaire
[4] = 20 mg for three consecutive nights, difference from placebo
[5] = Post-Sleep Questionnaire, difference from placebo
[6] = 20 mg dose, 8-hour bedtime advance, difference from placebo
[7] = 20 mg dose, 8-hour bedtime advance, treatment group value
[8] = 8-hour phase advance, difference from placebo
[9] = 8-hour phase advance, treatment group value

CCC(=O)NC[C@@H]1C[C@H]1c1cccc2c1CCO2 [Hetlioz ®, tasimelteon]
Objective TST2/3 Night 3, change from baseline ([1]; listed as HETLIOZ ®): 76.2 min | Objective TST2/3 Night 3, change from baseline ([1]; listed as Tasimelteon): 76 min | Global measures KSS Day 4, change from baseline ([1]; 20 mg for three consecutive nights, Karolinska Sleepiness Scale): −1.69 | Global measures PGI-S Day 3, change from baseline ([1]; 20 mg for three consecutive nights, Patient Global Impression of Severity): −0.71 | Subjective Sleep Latency Night 3, change from baseline [1, 3]: −20.6 | Subjective Sleep Quality Night 3, change from baseline [1, 3]: 1.31 | Subjective TSTFull All 3 Nights, change from baseline [1, 3]: 240.0 | Subjective TSTFull Night 3, change from baseline [1, 3]: 111.9 | Subjective WASO Night 3, change from baseline [1, 3]: −81.1 | Objective TST2/3 All 3 nights, change from baseline, Difference vs placebo [1, 4]: 90.6 min | Objective TST2/3 Night 3, change from baseline, Difference vs placebo [1, 4]: 34.8 min | Objective TST2/3 All 3 nights, change from baseline ([1]; 20 mg for three consecutive nights, listed as HETLIOZ ®): 131.4 min | Objective TST2/3 All 3 nights, change from baseline ([1]; 20 mg for three consecutive nights, listed as Tasimelteon): 131 min | Global measures KSS Day 4, change from baseline, Difference vs placebo ([1]; Karolinska Sleepiness Scale, difference from placebo): −1.00 | Global measures PGI-S Day 3, change from baseline, Difference vs placebo ([1]; Patient Global Impression of Severity, difference from placebo): −0.63 | Subjective Sleep Latency Night 3, change from baseline, Difference vs placebo [1, 5]: −26.5 | Subjective Sleep Quality Night 3, change from baseline, Difference vs placebo [1, 5]: 0.95 | Subjective TSTFull All 3 Nights, change from baseline, Difference vs placebo [1, 5]: 174.9 | Subjective TSTFull Night 3, change from baseline, Difference vs placebo [1, 5]: 78.5 | Subjective WASO Night 3, change from baseline, Difference vs placebo [1, 5]: −56.4 | PSG TST2/3 (sleep time in first two thirds of the night, primary endpoint) ([2]; 20 mg dose, 8-hour bedtime advance, healthy volunteers, treatment group value): 216.4 min | KSS (1-9) average, next day alertness ([2]; 20 mg dose, 8-hour bedtime advance, Karolinska Sleepiness Scale, treatment group value): 4.0 | VAS (0-100) average, next day alertness ([2]; 20 mg dose, 8-hour bedtime advance, Visual Analog Scale, treatment group value): 60.8 | KSS (1-9) average, Diff vs placebo [2, 6]: −0.53 | PSG LPS, Diff vs placebo [2, 6]: -15.08 min | PSG TST2/3, Diff vs placebo [2, 6]: 60.31 min | PSG TSTfull, Diff vs placebo [2, 6]: 85.46 min | PSG WASO, Diff vs placebo [2, 6]: -74.58 min | VAS (0-100) average, Diff vs placebo [2, 6]: 6.59 | PSG TSTfull, Diff vs placebo ([2]; 20 mg dose, 8-hour bedtime advance, difference from placebo, listed as tasimelteon): 85 min | PSG LPS (latency to persistent sleep) [2, 7]: 21.8 min | PSG TSTfull (total sleep time) [2, 7]: 315.8 min | PSG WASO (wake after sleep onset) [2, 7]: 144.6 min | PSG REMTotal, Difference vs placebo [2, 8]: 13.7 min | REMAccumulate, Difference vs placebo [2, 8]: -53.3 min | REMAchieved, Difference vs placebo [2, 8]: 24.5% | PSG REMTotal (total REM sleep period) [2, 9]: 48.9 min | REMAccumulate (time required to accumulate 30 minutes of REM sleep) [2, 9]: 318.7 min | REMAchieved [2, 9]: 76.1%
